Key:
[1] = biological target: T1, Corticotropin-releasing factor receptor 2 (Homo sapiens, UniProt Q13324)
T1 sequence (Q13324 whole entry): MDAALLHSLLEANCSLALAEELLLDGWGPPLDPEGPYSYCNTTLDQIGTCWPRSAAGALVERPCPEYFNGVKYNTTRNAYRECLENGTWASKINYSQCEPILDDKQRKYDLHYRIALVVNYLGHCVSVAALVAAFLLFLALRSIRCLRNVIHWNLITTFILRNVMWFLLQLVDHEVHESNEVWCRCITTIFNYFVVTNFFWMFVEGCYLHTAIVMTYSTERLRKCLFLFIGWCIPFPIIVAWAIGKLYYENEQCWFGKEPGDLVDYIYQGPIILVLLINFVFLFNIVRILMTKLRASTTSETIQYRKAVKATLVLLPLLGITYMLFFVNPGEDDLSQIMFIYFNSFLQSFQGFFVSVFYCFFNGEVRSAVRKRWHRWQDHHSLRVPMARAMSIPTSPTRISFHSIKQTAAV

[2] = biological target: T2, Endothelin receptor type B (Homo sapiens, UniProt P24530)
T2 sequence (P24530 whole entry): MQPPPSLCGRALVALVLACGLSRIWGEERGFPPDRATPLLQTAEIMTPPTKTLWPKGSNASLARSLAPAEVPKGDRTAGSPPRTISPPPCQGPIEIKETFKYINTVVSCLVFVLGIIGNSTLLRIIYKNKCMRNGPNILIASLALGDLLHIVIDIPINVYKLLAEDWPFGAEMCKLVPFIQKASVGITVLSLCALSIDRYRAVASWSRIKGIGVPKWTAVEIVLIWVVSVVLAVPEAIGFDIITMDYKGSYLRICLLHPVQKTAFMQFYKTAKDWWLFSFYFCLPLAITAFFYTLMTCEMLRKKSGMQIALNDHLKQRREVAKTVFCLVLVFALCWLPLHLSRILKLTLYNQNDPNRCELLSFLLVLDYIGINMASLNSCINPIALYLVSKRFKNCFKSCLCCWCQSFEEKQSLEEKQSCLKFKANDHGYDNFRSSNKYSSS

[3] = biological target: Estrogen receptor beta (Homo sapiens, UniProt Q92731)
[4] = biological target: Glucagon receptor (Homo sapiens, UniProt P47871)
[5] = biological target: T3, Gastric inhibitory polypeptide receptor (Homo sapiens, UniProt P48546)
T3 sequence (P48546 whole entry): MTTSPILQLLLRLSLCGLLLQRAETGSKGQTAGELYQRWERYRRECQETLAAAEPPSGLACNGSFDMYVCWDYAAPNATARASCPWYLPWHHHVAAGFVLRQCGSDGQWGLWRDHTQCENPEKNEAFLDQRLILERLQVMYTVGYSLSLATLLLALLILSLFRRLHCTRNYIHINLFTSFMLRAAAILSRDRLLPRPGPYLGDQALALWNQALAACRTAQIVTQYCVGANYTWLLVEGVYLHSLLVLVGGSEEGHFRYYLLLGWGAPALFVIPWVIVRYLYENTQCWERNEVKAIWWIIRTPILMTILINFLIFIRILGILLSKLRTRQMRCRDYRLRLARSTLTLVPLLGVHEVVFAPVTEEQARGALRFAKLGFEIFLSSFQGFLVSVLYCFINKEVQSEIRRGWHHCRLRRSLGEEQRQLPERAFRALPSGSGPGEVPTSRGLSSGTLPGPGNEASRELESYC

[6] = biological target: T4, Muscarinic acetylcholine receptor M2 (Homo sapiens, UniProt P08172)
T4 sequence (P08172 whole entry): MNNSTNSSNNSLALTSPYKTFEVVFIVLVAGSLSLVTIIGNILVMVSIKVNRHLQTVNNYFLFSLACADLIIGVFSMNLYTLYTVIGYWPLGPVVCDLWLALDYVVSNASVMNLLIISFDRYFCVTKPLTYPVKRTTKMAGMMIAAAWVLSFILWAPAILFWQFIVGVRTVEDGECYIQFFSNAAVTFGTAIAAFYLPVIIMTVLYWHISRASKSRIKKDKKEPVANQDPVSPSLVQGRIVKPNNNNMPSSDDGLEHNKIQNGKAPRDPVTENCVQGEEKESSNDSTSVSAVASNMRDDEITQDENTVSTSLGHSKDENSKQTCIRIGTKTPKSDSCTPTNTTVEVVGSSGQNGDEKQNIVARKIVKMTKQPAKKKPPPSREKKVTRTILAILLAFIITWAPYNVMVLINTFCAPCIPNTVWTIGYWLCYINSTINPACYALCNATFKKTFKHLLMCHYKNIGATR

[7] = biological target: T5, Glucocorticoid receptor (Homo sapiens, UniProt P04150); type: functional
T5 sequence (P04150 whole entry): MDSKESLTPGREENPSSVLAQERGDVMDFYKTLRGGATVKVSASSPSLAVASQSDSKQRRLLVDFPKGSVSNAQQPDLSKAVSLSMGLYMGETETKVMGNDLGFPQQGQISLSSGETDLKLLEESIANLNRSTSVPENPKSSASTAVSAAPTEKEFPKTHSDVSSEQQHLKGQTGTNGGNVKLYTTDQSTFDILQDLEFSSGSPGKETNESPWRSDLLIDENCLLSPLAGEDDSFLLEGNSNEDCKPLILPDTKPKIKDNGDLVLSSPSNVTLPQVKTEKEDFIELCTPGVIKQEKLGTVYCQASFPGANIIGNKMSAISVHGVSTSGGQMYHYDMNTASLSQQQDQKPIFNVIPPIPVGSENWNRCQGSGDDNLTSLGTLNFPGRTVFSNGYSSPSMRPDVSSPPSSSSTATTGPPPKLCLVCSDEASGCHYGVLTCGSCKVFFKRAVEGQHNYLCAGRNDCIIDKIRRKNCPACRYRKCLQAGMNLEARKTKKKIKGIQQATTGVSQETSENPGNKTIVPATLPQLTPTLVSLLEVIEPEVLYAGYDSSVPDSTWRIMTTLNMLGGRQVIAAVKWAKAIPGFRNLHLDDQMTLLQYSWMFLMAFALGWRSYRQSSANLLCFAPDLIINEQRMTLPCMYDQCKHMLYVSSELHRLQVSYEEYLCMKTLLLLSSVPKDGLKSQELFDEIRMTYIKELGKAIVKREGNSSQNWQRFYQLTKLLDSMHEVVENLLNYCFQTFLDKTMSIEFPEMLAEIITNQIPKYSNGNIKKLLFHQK
Also: assay procedure not described here.

Sequence of Estrogen receptor beta (Q92731 whole entry): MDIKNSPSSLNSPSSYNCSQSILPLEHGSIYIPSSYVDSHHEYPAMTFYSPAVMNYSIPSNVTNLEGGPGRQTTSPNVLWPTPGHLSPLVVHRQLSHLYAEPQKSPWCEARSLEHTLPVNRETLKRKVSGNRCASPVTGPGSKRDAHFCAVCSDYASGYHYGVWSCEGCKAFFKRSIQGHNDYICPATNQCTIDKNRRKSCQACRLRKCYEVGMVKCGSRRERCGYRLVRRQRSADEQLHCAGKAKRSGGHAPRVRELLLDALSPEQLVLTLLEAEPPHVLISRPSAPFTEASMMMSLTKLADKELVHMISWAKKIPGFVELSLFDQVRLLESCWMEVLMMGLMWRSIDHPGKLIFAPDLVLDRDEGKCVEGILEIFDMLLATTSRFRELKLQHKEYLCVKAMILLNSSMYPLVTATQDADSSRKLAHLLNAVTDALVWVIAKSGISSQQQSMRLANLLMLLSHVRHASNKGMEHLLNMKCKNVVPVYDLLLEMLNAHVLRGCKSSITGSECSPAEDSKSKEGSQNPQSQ
Sequence of Glucagon receptor (P47871 whole entry): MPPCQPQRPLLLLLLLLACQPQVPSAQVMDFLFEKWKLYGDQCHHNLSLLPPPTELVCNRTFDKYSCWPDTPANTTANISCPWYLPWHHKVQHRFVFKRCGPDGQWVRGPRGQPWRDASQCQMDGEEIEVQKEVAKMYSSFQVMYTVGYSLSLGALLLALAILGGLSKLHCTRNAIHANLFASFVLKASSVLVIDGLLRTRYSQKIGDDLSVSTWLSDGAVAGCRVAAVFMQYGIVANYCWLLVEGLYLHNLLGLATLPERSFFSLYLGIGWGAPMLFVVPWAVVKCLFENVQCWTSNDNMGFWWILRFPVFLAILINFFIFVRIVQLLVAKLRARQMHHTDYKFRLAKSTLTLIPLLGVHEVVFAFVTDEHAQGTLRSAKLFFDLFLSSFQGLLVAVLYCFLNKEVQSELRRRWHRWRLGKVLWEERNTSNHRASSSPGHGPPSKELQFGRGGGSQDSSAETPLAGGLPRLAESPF

Structure (SMILES) | AC50 [1] | AC50 [2] | AC50 [3] | AC50 [4] | AC50 [5] | AC50 [6] | AC50 [7]
Nc1nc(N)c2nc(-c3ccccc3)c(N)nc2n1 | > 30 µM | > 30 µM | > 30 µM | > 30 µM | > 30 µM | > 10 µM | 
NS(=O)(=O)c1cc2c(cc1Cl)NCNS2(=O)=O [HYDROCHLOROTHIAZIDE] | > 30 µM | > 30 µM | > 30 µM | > 30 µM | > 30 µM | > 10 µM | 
CCN(CC)CCNC(=O)c1cc(Cl)c(N)cc1OC [METOCLOPRAMIDE] | > 30 µM | > 30 µM | > 30 µM | > 30 µM | > 30 µM |  | 
CCc1nn(CCCN2CCN(c3cccc(Cl)c3)CC2)c(=O)n1CCOc1ccccc1 [NEFAZODONE] | > 30 µM | > 30 µM | > 30 µM | > 30 µM | > 30 µM |  | 
OCc1cc([C@@H](O)CNCCCCCCOCCOCc2c(Cl)cccc2Cl)ccc1O [VILANTEROL] |  |  |  |  |  |  | > 30 µM
COC(=O)[C@@H]1CC2=CC(=O)CC[C@]2(C)[C@@]23O[C@@H]2C[C@@]2(C)[C@@H](CC[C@@]24CCC(=O)O4)[C@H]13 [EPLERENONE] | > 30 µM | > 30 µM |  | > 30 µM | > 30 µM | > 10 µM | 
COc1cc(Nc2c(C#N)cnc3cc(OCCCN4CCN(C)CC4)c(OC)cc23)c(Cl)cc1Cl [BOSUTINIB] | > 30 µM | > 30 µM | > 30 µM | > 30 µM | > 30 µM | 6.04 µM | 
CC(C)NCC(O)COc1ccc(COCCOC(C)C)cc1 (stereo unspecified) [BISOPROLOL] | > 30 µM | > 30 µM | > 30 µM | > 30 µM | > 30 µM | > 10 µM | 
CC(N)Cc1ccccc1 (stereo unspecified) [AMPHETAMINE] | > 30 µM | > 30 µM | > 30 µM | > 30 µM | > 30 µM | > 10 µM | > 30 µM
C#C[C@]1(O)CC[C@H]2[C@@H]3CCc4cc(O)ccc4[C@H]3CC[C@@]21C [ETHINYL ESTRADIOL] | > 30 µM | > 30 µM |  | > 30 µM | > 30 µM | > 10 µM | > 30 µM
CC(C)NNC(=O)c1ccncc1 [IPRONIAZID] |  |  |  |  |  |  | > 30 µM
CC[C@H](C)C(=O)O[C@H]1C[C@H](O)C=C2C=C[C@H](C)[C@H](CC[C@@H](O)C[C@@H](O)CC(=O)O)[C@H]21 [PRAVASTATIN] |  |  |  |  |  |  | > 30 µM
CN(CCOc1ccc(NS(C)(=O)=O)cc1)CCc1ccc(NS(C)(=O)=O)cc1 [DOFETILIDE] | > 30 µM | > 30 µM |  | > 30 µM | > 30 µM | > 10 µM | 
CO/N=C(\C(=O)N[C@@H]1C(=O)N2C(C(=O)[O-])=C(C[N+]3(C)CCCC3)CS[C@H]12)c1csc(N)n1 |  |  |  |  |  |  | > 300 µM
CCOC(=O)[C@H](CCc1ccccc1)N[C@@H](C)C(=O)N1CCC[C@H]1C(=O)O | > 30 µM | > 30 µM |  | > 30 µM | > 30 µM | > 10 µM | 
